The record followed here is patent publication US20260365670A1, “EGFR INHIBITORS AND USES THEREOF” (DIZAL (JIANGSU) PHARMACEUTICAL CO., LTD., priority 2022, published 2026).

Broadly, the IC50 is the midpoint of a concentration-inhibition curve.

For one assay, the target named is T1, EGFR L858R (Homo sapiens, UniProt P00533, L858R).
T1 construct: purchased Carna Bio
Description: Inhibition of EGFR L858R biochemical enzymatic activity (HTRF). To be noted: 1 mM ATP. A digest of the protocol:
(§1)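 Each enzyme was first added to plates holding compound. The reaction was then started with ATP (1 mM) and peptide substrate (1 μM). It was stopped after 1 h at room temperature with EDTA detection reagents and read at 615/665 nm to derive IC50s.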
On the technique in general: Time-resolved FRET reads energy transfer from a long-lived donor to a nearby acceptor.

The target in a further assay is T2, EGFR Exon19Del/T790M (Homo sapiens, UniProt P00533, DEL746-750/T790M).
T2 construct: purchased Carna Bio
Description: Inhibition of EGFR Exon19Del/T790M biochemical enzymatic activity (HTRF). To be noted: 1 mM ATP. In outline:
as §1

The target in assay [1] is T3, EGFR[T790M/C797S/d746-750] (Homo sapiens, UniProt P00533, C797S/DEL746-750/T790M).
T3 construct: purchased Carna Bio
Put plainly: Inhibition of EGFR[T790M/C797S/d746-750] biochemical enzymatic activity (HTRF). A digest of the protocol:
as §1

A further assay deals with T4, EGFR[T790M/C797S/L858R] (Homo sapiens, UniProt P00533, C797S/L858R/T790M).
T4 construct: purchased Carna Bio
Put plainly: Inhibition of EGFR[T790M/C797S/L858R] biochemical enzymatic activity (HTRF). To be noted: 1 mM ATP. In outline: as §1

In another assay the target is T5, EGFR Exon19Del (Homo sapiens, UniProt P00533, DEL746-750).
T5 construct: purchased Carna Bio
Description: Inhibition of EGFR Exon19Del biochemical enzymatic activity (HTRF). To be noted: read-out: IC50 @Del19. In outline: as §1

A further assay concerns the target T6, EGFR (C797S L858R) (Homo sapiens, UniProt P00533, C797S/L858R).
T6 construct: purchased signalchem
Description: Inhibition of EGFR (C797S L858R) biochemical enzymatic activity (HTRF). To be noted: 1 mM ATP. A digest of the protocol: as §1

A further assay concerns PC-9. Put plainly: Cell proliferation assay, PC-9 cells (CellTiter-Glo, 72 hours). It counts as cell-based. To be noted: PC9 cells, read-out: GI50 PC9. A digest of the protocol:
(§2)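 Ba/F3 cells (5000/well) and PC-9 cells (500/well, RPMI1640 with 10% FBS) were plated overnight and then dosed with a compound concentration series. Viable cells were read at day 0 (G0) and after treatment (G3). GI50 came from curve fits of G0-corrected proliferation relative to DMSO.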
A general note: ATP-based viability assays read luminescence as a measure of living cells.

For another assay, the target named is T7, EGFR (d746-750 C797S) (Homo sapiens, UniProt P00533, C797S/DEL746-750).
T7 construct: purchased signalchem
Put plainly: Inhibition of EGFR (d746-750 C797S) biochemical enzymatic activity (HTRF). To be noted: 1 mM ATP. In outline: as §1

Assay [2] deals with Ba/F3 cells expressing EGFR mutations. Description: Cell proliferation assay, Ba/F3 cells expressing EGFR mutations (CellTiter-Glo, 72 hours). It counts as cell-based. A digest of the protocol:
as §2

A further assay deals with T8, EGFR wild type (Homo sapiens, UniProt P00533).
T8 construct: purchased Carna Bio
Description: Inhibition of EGFR wild type biochemical enzymatic activity (HTRF). To be noted: 1 mM ATP. In outline:
as §1

The next assay relates to A-431. Description: Cell proliferation assay, A-431 cells (GI50, Table 6). The format is cell-based.
The target in a further assay is T9, EGFR L858R/T790M (Homo sapiens, UniProt P00533, L858R/T790M).
T9 construct: purchased Carna Bio
Description: Inhibition of EGFR L858R/T790M biochemical enzymatic activity (HTRF). To be noted: 1 mM ATP. In outline: as §1

[3] abbreviates: 1 h at room temperature, read-out: IC50 @L858R.
Where [4] appears, read: EGFR Exon19Del/T790M, 1 h at room temperature, read-out: IC50 @Del19-T790M.
Setting [5] is: EGFR[T790M/C797S/d746-750], 1 mM ATP, 1 h at room temperature, read-out: IC50 @T790M - C797S - Del19.
Where [6] appears, read: EGFR[T790M/C797S/L858R], 1 h at room temperature, read-out: IC50 @T790M- C797S - L858R.
Where [7] appears, read: EGFR Exon19Del, 1 mM ATP, 1 h at room temperature.
Setting [8] is: EGFR (C797S L858R), 1 h at room temperature, read-out: IC50 @L858-C797S.
The mark [9] stands for this setting: EGFR (d746-750 C797S), 1 h at room temperature, read-out: IC50 @Del19-C797S.
Where [10] appears, read: EGFR wild type, 1 h at room temperature, read-out: IC50 @WT.
[11] abbreviates: EGFR L858R/T790M, 1 h at room temperature, read-out: IC50 @L858R-T790M.
The mark [12] stands for this setting: Mus musculus, BaF3, 72 h, BaF3 cells, EGFR DEL19 - C797S, read-out: GI50 DEL19 - C797S/BaF3.
[13] abbreviates: Mus musculus, BaF3, 72 h, BaF3 cells, EGFR DEL19 - T790-C797S, read-out: GI50 DEL19 - T790-C797S/BaF3.
[14] abbreviates: Mus musculus, BaF3, 72 h, BaF3 cells, EGFR L858R - C797S, read-out: GI50 L858R - C797S/BaF3.
Setting [15] is: Mus musculus, BaF3, 72 h, BaF3 cells, EGFR L858R - T790-C797S, read-out: GI50 L858R - T790-C797S/BaF3.
The mark [16] stands for this setting: Mus musculus, BaF3, 72 h, BaF3 cells, EGFR L858R - T790M, read-out: GI50 L858R - T790M/BaF3.
[17] abbreviates: Mus musculus, BaF3, 72 h, BaF3 cells, EGFR L858R, read-out: GI50 L858R/BaF3.
Setting [18] is: Mus musculus, BaF3, 72 h, EGFR DEL19 - T790M, read-out: GI50 DEL19 - T790M.
[19] abbreviates: Homo sapiens, A-431, A-431 cells.

Where two headings read alike, the source gives them in different places. Where only a bound is given, the exact number is not on record here.

T5 sequence (P00533 with tags, fused parts or gaps DEL746-750 limits assumed): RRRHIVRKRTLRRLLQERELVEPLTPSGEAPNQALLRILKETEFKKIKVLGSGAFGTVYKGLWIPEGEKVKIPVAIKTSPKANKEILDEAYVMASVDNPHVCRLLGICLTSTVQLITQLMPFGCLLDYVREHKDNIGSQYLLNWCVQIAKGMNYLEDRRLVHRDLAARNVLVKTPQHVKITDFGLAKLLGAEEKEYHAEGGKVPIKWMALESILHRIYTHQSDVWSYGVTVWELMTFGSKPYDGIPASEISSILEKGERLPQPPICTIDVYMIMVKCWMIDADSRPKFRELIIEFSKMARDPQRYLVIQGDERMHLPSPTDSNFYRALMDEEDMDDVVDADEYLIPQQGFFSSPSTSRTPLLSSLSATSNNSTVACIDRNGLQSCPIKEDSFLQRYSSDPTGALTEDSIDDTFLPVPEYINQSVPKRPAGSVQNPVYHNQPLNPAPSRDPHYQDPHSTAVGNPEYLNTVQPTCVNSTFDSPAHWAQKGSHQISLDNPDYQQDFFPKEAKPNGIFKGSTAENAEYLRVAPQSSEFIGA
T2 sequence (P00533 with tags, fused parts or gaps DEL746-750/T790M limits assumed): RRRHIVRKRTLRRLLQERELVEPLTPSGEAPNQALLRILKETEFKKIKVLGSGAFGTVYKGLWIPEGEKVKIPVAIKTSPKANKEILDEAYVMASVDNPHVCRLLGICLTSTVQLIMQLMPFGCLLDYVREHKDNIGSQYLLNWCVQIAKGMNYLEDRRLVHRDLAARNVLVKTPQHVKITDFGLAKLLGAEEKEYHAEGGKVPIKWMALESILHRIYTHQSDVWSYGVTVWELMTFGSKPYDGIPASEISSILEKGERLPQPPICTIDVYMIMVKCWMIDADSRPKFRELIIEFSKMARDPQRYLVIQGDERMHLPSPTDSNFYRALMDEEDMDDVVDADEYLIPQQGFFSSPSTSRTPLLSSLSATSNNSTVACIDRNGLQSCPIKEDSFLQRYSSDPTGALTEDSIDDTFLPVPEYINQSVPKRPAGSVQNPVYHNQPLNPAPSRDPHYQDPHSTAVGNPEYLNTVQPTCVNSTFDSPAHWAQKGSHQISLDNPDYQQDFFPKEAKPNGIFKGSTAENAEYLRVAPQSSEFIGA
T1 sequence (P00533 25-1210 L858R): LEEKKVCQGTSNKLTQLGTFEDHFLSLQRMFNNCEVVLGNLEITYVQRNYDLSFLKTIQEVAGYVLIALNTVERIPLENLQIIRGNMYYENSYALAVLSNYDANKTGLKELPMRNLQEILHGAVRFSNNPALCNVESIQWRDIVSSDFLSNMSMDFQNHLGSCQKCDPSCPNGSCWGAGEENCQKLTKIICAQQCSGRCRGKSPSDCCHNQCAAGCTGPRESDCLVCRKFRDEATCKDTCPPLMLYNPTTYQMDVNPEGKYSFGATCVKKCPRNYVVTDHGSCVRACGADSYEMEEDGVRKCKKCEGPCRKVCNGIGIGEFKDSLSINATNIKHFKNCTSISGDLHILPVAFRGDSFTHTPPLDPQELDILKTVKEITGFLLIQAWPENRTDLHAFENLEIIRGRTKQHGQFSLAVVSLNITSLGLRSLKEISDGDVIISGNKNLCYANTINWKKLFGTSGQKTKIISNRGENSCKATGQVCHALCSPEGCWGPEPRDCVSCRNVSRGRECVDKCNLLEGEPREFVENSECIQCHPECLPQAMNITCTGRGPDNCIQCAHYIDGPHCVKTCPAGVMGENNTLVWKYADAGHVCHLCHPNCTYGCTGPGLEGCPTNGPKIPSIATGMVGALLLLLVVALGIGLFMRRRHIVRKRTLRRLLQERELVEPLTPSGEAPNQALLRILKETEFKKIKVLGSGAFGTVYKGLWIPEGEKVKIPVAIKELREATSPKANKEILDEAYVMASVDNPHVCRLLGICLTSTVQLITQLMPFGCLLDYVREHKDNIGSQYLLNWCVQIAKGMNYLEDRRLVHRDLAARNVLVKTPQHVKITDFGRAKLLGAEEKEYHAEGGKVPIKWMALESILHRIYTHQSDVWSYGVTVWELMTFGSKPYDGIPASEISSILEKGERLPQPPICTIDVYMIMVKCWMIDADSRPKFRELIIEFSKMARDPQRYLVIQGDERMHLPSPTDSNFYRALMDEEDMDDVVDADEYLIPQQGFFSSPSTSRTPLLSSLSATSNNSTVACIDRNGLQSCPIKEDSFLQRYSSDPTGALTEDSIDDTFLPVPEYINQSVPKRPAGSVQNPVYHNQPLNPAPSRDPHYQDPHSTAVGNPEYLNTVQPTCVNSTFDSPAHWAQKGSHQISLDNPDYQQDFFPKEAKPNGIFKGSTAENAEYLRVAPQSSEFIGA
T7 sequence (P00533 with tags, fused parts or gaps DEL746-750/C797S limits assumed): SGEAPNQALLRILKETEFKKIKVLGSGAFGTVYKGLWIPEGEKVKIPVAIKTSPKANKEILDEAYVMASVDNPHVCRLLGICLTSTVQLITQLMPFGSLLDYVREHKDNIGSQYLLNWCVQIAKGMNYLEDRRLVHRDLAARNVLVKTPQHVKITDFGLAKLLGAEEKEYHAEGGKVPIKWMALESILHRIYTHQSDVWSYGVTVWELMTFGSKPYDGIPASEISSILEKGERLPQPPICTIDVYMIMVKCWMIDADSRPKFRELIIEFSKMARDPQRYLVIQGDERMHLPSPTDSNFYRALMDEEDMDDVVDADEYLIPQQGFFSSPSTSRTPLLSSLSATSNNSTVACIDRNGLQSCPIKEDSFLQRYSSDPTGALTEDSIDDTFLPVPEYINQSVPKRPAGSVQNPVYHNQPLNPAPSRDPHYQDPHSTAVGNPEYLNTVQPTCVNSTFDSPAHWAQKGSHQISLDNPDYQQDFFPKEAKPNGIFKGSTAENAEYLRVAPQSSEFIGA
T6 sequence (P00533 25-1210 C797S/L858R): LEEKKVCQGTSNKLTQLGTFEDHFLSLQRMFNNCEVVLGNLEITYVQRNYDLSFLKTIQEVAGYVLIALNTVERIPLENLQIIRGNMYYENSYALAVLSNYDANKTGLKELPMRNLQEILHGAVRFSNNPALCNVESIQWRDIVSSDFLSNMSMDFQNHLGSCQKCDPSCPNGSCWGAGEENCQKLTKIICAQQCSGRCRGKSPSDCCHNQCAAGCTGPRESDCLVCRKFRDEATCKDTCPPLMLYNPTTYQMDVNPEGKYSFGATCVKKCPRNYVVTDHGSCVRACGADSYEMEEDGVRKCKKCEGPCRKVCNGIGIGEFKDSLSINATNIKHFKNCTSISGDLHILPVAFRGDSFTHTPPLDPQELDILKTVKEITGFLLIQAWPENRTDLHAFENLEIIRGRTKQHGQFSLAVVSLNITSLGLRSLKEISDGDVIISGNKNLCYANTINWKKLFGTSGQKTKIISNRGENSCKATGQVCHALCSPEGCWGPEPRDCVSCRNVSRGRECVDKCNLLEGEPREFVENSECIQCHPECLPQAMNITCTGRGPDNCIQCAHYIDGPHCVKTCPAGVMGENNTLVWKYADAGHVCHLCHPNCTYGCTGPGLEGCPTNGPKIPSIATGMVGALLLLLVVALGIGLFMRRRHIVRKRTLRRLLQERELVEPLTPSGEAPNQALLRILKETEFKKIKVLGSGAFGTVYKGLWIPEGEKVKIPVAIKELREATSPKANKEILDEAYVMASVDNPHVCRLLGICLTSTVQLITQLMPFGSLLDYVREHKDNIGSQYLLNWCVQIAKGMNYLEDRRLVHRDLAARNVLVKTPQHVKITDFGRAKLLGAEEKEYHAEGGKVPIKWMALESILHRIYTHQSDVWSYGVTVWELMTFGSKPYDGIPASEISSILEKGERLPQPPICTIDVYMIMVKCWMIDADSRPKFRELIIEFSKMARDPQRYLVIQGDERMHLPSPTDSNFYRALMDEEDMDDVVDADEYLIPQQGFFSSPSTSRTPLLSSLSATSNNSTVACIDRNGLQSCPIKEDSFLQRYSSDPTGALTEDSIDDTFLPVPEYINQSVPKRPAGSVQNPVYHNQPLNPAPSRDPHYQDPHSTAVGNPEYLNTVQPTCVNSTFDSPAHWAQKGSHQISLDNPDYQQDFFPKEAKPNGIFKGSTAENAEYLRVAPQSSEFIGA
T3 sequence (P00533 with tags, fused parts or gaps DEL746-750/T790M/C797S limits assumed): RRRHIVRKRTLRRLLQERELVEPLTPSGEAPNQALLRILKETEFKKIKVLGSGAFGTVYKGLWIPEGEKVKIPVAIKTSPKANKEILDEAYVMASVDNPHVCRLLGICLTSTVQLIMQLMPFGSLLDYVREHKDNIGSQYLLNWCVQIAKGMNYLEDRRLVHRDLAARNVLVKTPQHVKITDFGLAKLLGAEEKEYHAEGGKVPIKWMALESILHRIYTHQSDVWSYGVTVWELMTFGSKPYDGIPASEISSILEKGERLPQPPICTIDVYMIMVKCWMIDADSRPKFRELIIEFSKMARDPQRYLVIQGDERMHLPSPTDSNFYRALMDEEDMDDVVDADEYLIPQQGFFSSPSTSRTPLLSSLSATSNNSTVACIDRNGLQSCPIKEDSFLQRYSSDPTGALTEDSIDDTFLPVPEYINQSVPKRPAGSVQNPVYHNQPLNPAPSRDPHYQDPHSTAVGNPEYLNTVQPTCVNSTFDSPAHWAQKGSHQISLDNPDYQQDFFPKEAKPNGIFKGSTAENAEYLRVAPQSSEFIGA

Take `Cc1cc2cc(n1)-c1cnn(C)c1OCCN1CC3CCC(C3)(C1)n1c(nc3ccc(N4CCC(N5CCOCC5)C4)cc31)NC2=O` (single isomer, unassigned) [Example B44B2]: the IC50 on EGFR L858R (setting [3]) came to 267 nM; on EGFR Exon19Del/T790M (setting [4]), 8.4 nM; in assay [1] (setting [5]) it was 7 nM; at EGFR[T790M/C797S/L858R] (setting [6]), 5.5 nM; at EGFR Exon19Del (setting [7]), 21 nM; at EGFR (C797S L858R) (setting [8]), 66 nM. Besides, the IC50 on EGFR (d746-750 C797S) (setting [9]) was determined as 8.5 nM; at EGFR wild type (setting [10]) it was 4900 nM; on EGFR L858R/T790M (setting [11]) it was 14 nM. Also, the GI50 came to 22 nM in the assay on PC-9; 2 nM in [2] (BaF3 cells, EGFR DEL19 - C797S, read-out: GI50 DEL19 - C797S/BaF3); 2 nM in [2] (BaF3 cells, EGFR DEL19 - T790-C797S, read-out: GI50 DEL19 - T790-C797S/BaF3); 11 nM in [2] (BaF3 cells, EGFR L858R - C797S, read-out: GI50 L858R - C797S/BaF3); 2 nM in assay [2] (BaF3 cells, EGFR L858R - T790-C797S, read-out: GI50 L858R - T790-C797S/BaF3); 2 nM in assay [2] (BaF3 cells, EGFR L858R - T790M, read-out: GI50 L858R - T790M/BaF3). Also, the GI50 is 19 nM in assay [2] (BaF3 cells, EGFR L858R, read-out: GI50 L858R/BaF3); 8 nM in [2] (EGFR DEL19 - T790M, read-out: GI50 DEL19 - T790M); 3060 nM in the assay on A-431 (A-431 cells).
For the compound `CN1CCC2(CC1)CCN(c1ccc3nc4n(c3c1)C13CCC(CC1)CN(CCOc1c(cnn1C)-c1cc(cn(C)c1=O)C(=O)N4)C3)C2` [Example A123], the IC50 at EGFR L858R (1 h, room temperature, read-out: IC50 (nM) @L858R) was determined as 65 nM; on EGFR Exon19Del/T790M (EGFR Del19-T790M, 1 h, room temperature, read-out: IC50 (nM) @Del19-T790M) it was 13 nM; in assay [1] (EGFR T790M-C797S-Del19, 1 mM ATP, 1 h, room temperature, read-out: IC50 (nM) @T790M - C797S - Del19), 11 nM; at EGFR[T790M/C797S/L858R] (EGFR T790M-C797S-L858R, 1 h, room temperature, read-out: IC50 (nM) @T790M- C797S - L858R), 23 nM; at EGFR Exon19Del (EGFR Del19, 1 mM ATP, 1 h, room temperature), 13 nM; at EGFR (C797S L858R) (EGFR L858-C797S, 1 h, room temperature, read-out: IC50 (nM) @L858-C797S), 57 nM. The IC50 on EGFR (d746-750 C797S) (EGFR Del19-C797S, 1 h, room temperature, read-out: IC50 (nM) @Del19-C797S) was 9.4 nM; on EGFR wild type (EGFR WT, 1 h, room temperature, read-out: IC50 (nM) @WT), above 5000 nM; at EGFR L858R/T790M (EGFR L858R-T790M, 1 h, room temperature, read-out: IC50 (nM) @L858R-T790M), 223 nM. In addition, the GI50 was determined as 25 nM in the assay with PC-9 (Homo sapiens, PC-9, 72 h); 12 nM in assay [2] (setting [12]); 45 nM in [2] (setting [13]); 32 nM in assay [2] (setting [14]); 20 nM in [2] (setting [15]); 59 nM in assay [2] (setting [16]). Also, the GI50 was 5.8 nM in assay [2] (setting [17]), 27 nM in [2] (setting [18]) and 6110 nM with A-431 (setting [19]).
As for `Cc1cc2cc(n1)-c1cnn(C)c1OCCC[C@@H](C)Cn1c(nc3ccc4c(c31)CCN(C1COC1)C4)NC2=O` [Example B13, (11R)-5,11,30-trimethyl-18-(oxetan-3-yl)-7-oxa-4,5,13,18,24,26,31-heptaazahexacyclo[26.3.1.0^{2,6}.0^{13,25}.0^{14,23}.0^{15,20}]dotriaconta-1(31),2(6),3,14,20,22,24,28(32),29-nonaen-27-one], the IC50 on EGFR L858R (setting [3]) came out at 160 nM; on EGFR Exon19Del/T790M (setting [4]), 3.2 nM; in assay [1] (setting [5]), 4.1 nM; on EGFR[T790M/C797S/L858R] (setting [6]) it was 4.2 nM; at EGFR Exon19Del (setting [7]) it was 5.8 nM; at EGFR (C797S L858R) (setting [8]), 37 nM. Also, the values for the IC50 at EGFR (d746-750 C797S) (setting [9]), on EGFR wild type (setting [10]) and at EGFR L858R/T790M (setting [11]) were 3.8 nM, 2540 nM and 7 nM, respectively. The GI50 in the assay on PC-9 (Homo sapiens, PC-9, 72 h) worked out at 22 nM; in [2] (setting [12]) it was 4.8 nM; in assay [2] (setting [13]), 1 nM; in assay [2] (setting [14]), 20 nM; in assay [2] (setting [15]) it was 1.2 nM; in assay [2] (setting [16]), 3.4 nM. Moreover, the values for the GI50 (in assay [2] (setting [17]); in assay [2] (setting [18]); in the assay with A-431 (setting [19])) were 18 nM, 2.9 nM and 507 nM, respectively.
